Measurements reported in PubChem BioAssay AID2060490 (Molecular Pharmacology Branch, DTP, NCI, 2025).
pIC50: −log10 of the molar value.

Tested on: 885512-296-R-J2-PDC complex spheroid viability
Assay: Anticancer human tumor 885512-296-R-J2-PDC patient-derived breast carcinoma cell line growth inhibition [GQUAD]
Settings: for pIC50: curve of first compound; for viability, T/C: stronger effect = lower value; active means viability on the fitted dose curve at most 10% of control; inactive means the rest
How it was run: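 Multi-cell-type spheroids of tumor cells with HUVEC and mesenchymal stem cells, treated with drug combinations. Concentrations descend in half-log steps from near clinical Cmax, or from 10 microM where Cmax is unknown; viability read-out.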

[1] = second compound 0.0316 µM, first compound 0.0316 µM
[2] = second compound 0.0316 µM, first compound 0.1 µM
[3] = second compound 0.0316 µM, first compound 0.316 µM
[4] = second compound 0.0316 µM, first compound 1 µM
[5] = second compound 0.0316 µM, first compound 3.16 µM
[6] = second compound 0.0316 µM, first compound 10 µM
[7] = second compound 0.1 µM, first compound 0.0316 µM
[8] = second compound 0.1 µM, first compound 0.1 µM
[9] = second compound 0.1 µM, first compound 0.316 µM
[10] = second compound 0.1 µM, first compound 1 µM
[11] = second compound 0.1 µM, first compound 3.16 µM
[12] = second compound 0.1 µM, first compound 10 µM
[13] = second compound 0.316 µM, first compound 0.0316 µM
[14] = second compound 0.316 µM, first compound 0.1 µM
[15] = second compound 0.316 µM, first compound 0.316 µM
[16] = second compound 0.316 µM, first compound 1 µM
[17] = second compound 0.316 µM, first compound 3.16 µM
[18] = second compound 0.316 µM, first compound 10 µM
[19] = second compound 1 µM, first compound 0.0316 µM
[20] = second compound 1 µM, first compound 0.1 µM
[21] = second compound 1 µM, first compound 0.316 µM
[22] = second compound 1 µM, first compound 1 µM
[23] = second compound 1 µM, first compound 3.16 µM
[24] = second compound 1 µM, first compound 10 µM
[25] = second compound 3.16 µM, first compound 0.0316 µM
[26] = second compound 3.16 µM, first compound 0.1 µM
[27] = second compound 3.16 µM, first compound 0.316 µM
[28] = second compound 3.16 µM, first compound 1 µM
[29] = second compound 3.16 µM, first compound 3.16 µM
[30] = second compound 3.16 µM, first compound 10 µM
[31] = second compound 10 µM, first compound 0.0316 µM
[32] = second compound 10 µM, first compound 0.1 µM
[33] = second compound 10 µM, first compound 0.316 µM
[34] = second compound 10 µM, first compound 1 µM
[35] = second compound 10 µM, first compound 3.16 µM
[36] = second compound 10 µM, first compound 10 µM
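Further: spheroids exposed to the compounds for one week.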
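Wherever viability, T/C is given: percent of tumor spheroid viability relative to DMSO vehicle control wells.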

C#Cc1c(F)ccc2cc(O)cc(-c3ncc4c(N5CC6CCC(C5)N6)nc(OCC56CCCN5CC(F)C6)nc4c3F)c12 (stereo not drawn) + Cc1cnc(CNC(=O)c2c(=O)c3ccc(N4CCCN(C)CC4)nc3n3c2sc2ccccc23)cn1
active: viability, T/C [31] 0.12% | viability, T/C [32] 0.16% | viability, T/C [33] 0.18% | viability, T/C [34] 0.13% | viability, T/C [35] 0.19% | viability, T/C [36] 0.16%
< 5.00: pIC50 (second compound 0.0316 µM) | pIC50 (second compound 0.1 µM)
> 7.50: pIC50 (second compound 0.316 µM) | pIC50 (second compound 1 µM) | pIC50 (second compound 3.16 µM) | pIC50 (second compound 10 µM)
inactive: viability, T/C [1] 81.9% | viability, T/C [2] 80.5% | viability, T/C [3] 85.2% | viability, T/C [4] 83.9% | viability, T/C [5] 96.2% | viability, T/C [6] 83.5% | viability, T/C [7] 60.2% | viability, T/C [8] 60.3% | viability, T/C [9] 69.4% | viability, T/C [10] 59.8% | viability, T/C [11] 66.5% | viability, T/C [12] 56.5% | viability, T/C [13] 32.4% | viability, T/C [14] 26.6% | viability, T/C [15] 31.7% | viability, T/C [16] 34.7% | viability, T/C [17] 22.9% | viability, T/C [18] 31.9% | viability, T/C [19] 24.9% | viability, T/C [20] 23.8% | viability, T/C [21] 24.6% | viability, T/C [22] 28.2% | viability, T/C [23] 29.4% | viability, T/C [24] 23.9% | viability, T/C [25] 24.8% | viability, T/C [26] 32.1% | viability, T/C [27] 26.4% | viability, T/C [28] 28.7% | viability, T/C [29] 29.1% | viability, T/C [30] 9.52%

CC1COCCN1c1cc(C2(O)CC3CCC(C2)O3)c2cnn(-c3ccn[nH]3)c2n1 (stereo not drawn) + CN(C)c1ccc(Nc2c3ccc(NC(=O)CCN4CCCC4)cc3nc3cc(NC(=O)CCN4CCCC4)ccc23)cc1
inactive: viability, T/C [1] 25.4% | viability, T/C [7] 30% | viability, T/C [13] 22.3% | viability, T/C [19] 29.2% | viability, T/C [25] 18.8% | viability, T/C [31] 12.7%
active: viability, T/C [2] 5.25% | viability, T/C [3] 3.07% | viability, T/C [4] 5.38% | viability, T/C [5] 6.51% | viability, T/C [6] 7.85% | viability, T/C [8] 5.86% | viability, T/C [9] 3.33% | viability, T/C [10] 4.56% | viability, T/C [11] 7.53% | viability, T/C [12] 8.91% | viability, T/C [14] 6.08% | viability, T/C [15] 5.15% | viability, T/C [16] 4.96% | viability, T/C [17] 6.17% | viability, T/C [18] 8.92% | viability, T/C [20] 3.86% | viability, T/C [21] 4.06% | viability, T/C [22] 4.6% | viability, T/C [23] 6.32% | viability, T/C [24] 7.75% | viability, T/C [26] 5.47% | viability, T/C [27] 3.21% | viability, T/C [28] 4.64% | viability, T/C [29] 6.84% | viability, T/C [30] 6.31% | viability, T/C [32] 4.76% | viability, T/C [33] 4.43% | viability, T/C [34] 2.68% | viability, T/C [35] 3.3% | viability, T/C [36] 1.22%
> 7.50: pIC50 (second compound 0.0316 µM) | pIC50 (second compound 0.1 µM) | pIC50 (second compound 0.316 µM) | pIC50 (second compound 1 µM) | pIC50 (second compound 3.16 µM) | pIC50 (second compound 10 µM)

CC1COCCN1c1cc(-c2ccnn2C)c2ccnc(-c3ccn[nH]3)c2n1 (stereo not drawn) + CN(C)c1ccc(Nc2c3ccc(NC(=O)CCN4CCCC4)cc3nc3cc(NC(=O)CCN4CCCC4)ccc23)cc1
> 7.50: pIC50 (second compound 0.316 µM) | pIC50 (second compound 1 µM) | pIC50 (second compound 3.16 µM) | pIC50 (second compound 10 µM)
7.49: pIC50 (second compound 0.1 µM)
active: viability, T/C [2] 6.61% | viability, T/C [3] 3.14% | viability, T/C [4] 3% | viability, T/C [5] 4.69% | viability, T/C [6] 8.34% | viability, T/C [8] 7.66% | viability, T/C [9] 2.82% | viability, T/C [10] 3.38% | viability, T/C [11] 5.04% | viability, T/C [12] 7.27% | viability, T/C [14] 6.13% | viability, T/C [15] 3.67% | viability, T/C [16] 3.77% | viability, T/C [17] 5.39% | viability, T/C [18] 7.84% | viability, T/C [20] 7.67% | viability, T/C [21] 3.43% | viability, T/C [22] 3.61% | viability, T/C [23] 4.71% | viability, T/C [24] 8.81% | viability, T/C [26] 6.07% | viability, T/C [27] 3.25% | viability, T/C [28] 3.51% | viability, T/C [29] 5.21% | viability, T/C [30] 7.01% | viability, T/C [32] 7.23% | viability, T/C [33] 4.41% | viability, T/C [34] 3.59% | viability, T/C [35] 4.61% | viability, T/C [36] 2.61%
7.43: pIC50 (second compound 0.0316 µM)
inactive: viability, T/C [1] 57.1% | viability, T/C [7] 50.8% | viability, T/C [13] 46.7% | viability, T/C [19] 44% | viability, T/C [25] 27.2% | viability, T/C [31] 12.7%

CCc1c2c(nc3ccc(O)cc13)-c1cc3c(c(=O)n1C2)COC(=O)[C@]3(O)CC + CN(C)c1ccc(Nc2c3ccc(NC(=O)CCN4CCCC4)cc3nc3cc(NC(=O)CCN4CCCC4)ccc23)cc1
> 9.00: pIC50 (second compound 0.0316 µM) | pIC50 (second compound 0.1 µM) | pIC50 (second compound 0.316 µM) | pIC50 (second compound 1 µM) | pIC50 (second compound 3.16 µM) | pIC50 (second compound 10 µM)
inactive: viability, T/C (second compound 0.0316 µM, first compound 0.000999 µM) 18.3% | viability, T/C (second compound 0.1 µM, first compound 0.000999 µM) 15.7% | viability, T/C (second compound 0.316 µM, first compound 0.000999 µM) 13.1% | viability, T/C (second compound 1 µM, first compound 0.000999 µM) 19.3% | viability, T/C (second compound 3.16 µM, first compound 0.000999 µM) 18.7% | viability, T/C (second compound 3.16 µM, first compound 0.00316 µM) 11.3% | viability, T/C (second compound 10 µM, first compound 0.000999 µM) 12.8%
active: viability, T/C (second compound 0.0316 µM, first compound 0.00316 µM) 6.69% | viability, T/C (second compound 0.0316 µM, first compound 0.00999 µM) 3.15% | viability, T/C [1] 1.94% | viability, T/C (second compound 0.0316 µM, first compound 0.0999 µM) 1.66% | viability, T/C [3] 1.39% | viability, T/C (second compound 0.1 µM, first compound 0.00316 µM) 7.02% | viability, T/C (second compound 0.1 µM, first compound 0.00999 µM) 3.83% | viability, T/C [7] 2.59% | viability, T/C (second compound 0.1 µM, first compound 0.0999 µM) 1.42% | viability, T/C [9] 1.57% | viability, T/C (second compound 0.316 µM, first compound 0.00316 µM) 7.17% | viability, T/C (second compound 0.316 µM, first compound 0.00999 µM) 3.49% | viability, T/C [13] 2.63% | viability, T/C (second compound 0.316 µM, first compound 0.0999 µM) 1.58% | viability, T/C [15] 1.1% | viability, T/C (second compound 1 µM, first compound 0.00316 µM) 6.88% | viability, T/C (second compound 1 µM, first compound 0.00999 µM) 3.62% | viability, T/C [19] 2.24% | viability, T/C (second compound 1 µM, first compound 0.0999 µM) 1.82% | viability, T/C [21] 1.23% | viability, T/C (second compound 3.16 µM, first compound 0.00999 µM) 4.83% | viability, T/C [25] 2.33% | viability, T/C (second compound 3.16 µM, first compound 0.0999 µM) 1.61% | viability, T/C [27] 1.26% | viability, T/C (second compound 10 µM, first compound 0.00316 µM) 10.4% | viability, T/C (second compound 10 µM, first compound 0.00999 µM) 6.78% | viability, T/C [31] 3.28% | viability, T/C (second compound 10 µM, first compound 0.0999 µM) 1.43% | viability, T/C [33] 0.56%
